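Each compound was tested at five concentrations against cells in 96-well plates for 48 hours. GI50 is the concentration that inhibits growth by half.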 The source made the active and inactive calls. Rule as the data show it: active = GI50 up to about 1.1 µM and inactive = higher.
Legend:
Experiment in all cases: DTP human tumour cell line panel, 48 h
MOLT-4 = system: MOLT-4
UACC-257 = system: UACC-257
OVCAR-5 = system: OVCAR-5
SR = system: SR
A549 = system: A549
IGROV-1 = system: IGROV-1
HCT-116 = system: HCT-116
CAKI-1 = system: CAKI-1
HCT-15 = system: HCT-15
BT-549 = system: BT-549
HCC 2998 = system: HCC 2998
T47D = system: T47D
HL-60 = system: HL-60
ACHN = system: ACHN
SNB-75 = system: SNB-75
NCI-H226 = system: NCI-H226
OVCAR-8 = system: OVCAR-8
TK-10 = system: TK-10
HOP-62 = system: HOP-62
HT-29 = system: HT-29
EKVX = system: EKVX
NCI/ADR-RES = system: NCI/ADR-RES
SF-539 = system: SF-539
SK-MEL-5 = system: SK-MEL-5
SF-295 = system: SF-295
M14 = system: M14
SK-OV-3 = system: SK-OV-3
DU-145 = system: DU-145
UO-31 = system: UO-31
SK-MEL-2 = system: SK-MEL-2
MDA-MB-231 = system: MDA-MB-231
Hs-578T = system: Hs-578T
MCF7 = system: MCF7
NCI-H23 = system: NCI-H23
786-0 = system: 786-0
SNB-19 = system: SNB-19
MDA-N = system: MDA-N
RXF 393 = system: RXF 393
U-251 = system: U-251
K562 = system: K562
SF-268 = system: SF-268
A498 = system: A498
CCRF-CEM = system: CCRF-CEM
MDA-MB-435 = system: MDA-MB-435
PC-3 = system: PC-3
NCI-H522 = system: NCI-H522
COLO 205 = system: COLO 205
RPMI-8226 = system: RPMI-8226
UACC-62 = system: UACC-62
SN12C = system: SN12C
Malme-3M = system: Malme-3M
KM12 = system: KM12
SW-620 = system: SW-620
LOX IMVI = system: LOX IMVI
SK-MEL-28 = system: SK-MEL-28
NCI-H460 = system: NCI-H460
OVCAR-3 = system: OVCAR-3
OVCAR-4 = system: OVCAR-4
HOP-92 = system: HOP-92

Measured: GI50

Nc1n[n+]([O-])c2ccc(Cl)cc2[n+]1[O-]
inactive: MOLT-4 14.7 µM | UACC-257 17.9 µM | OVCAR-5 25.8 µM | SR 32.5 µM | A549 20.4 µM | IGROV-1 11.6 µM | HCT-116 18.5 µM | CAKI-1 21.9 µM | BT-549 13.2 µM | HCC 2998 16.4 µM | T47D 24.7 µM | HL-60 7.23 µM | ACHN 24.2 µM | SNB-75 4.66 µM | NCI-H226 23.1 µM | OVCAR-8 > 10 µM | TK-10 37.2 µM | HOP-62 11 µM | HT-29 25.8 µM | EKVX 32.2 µM | NCI/ADR-RES 36.3 µM | SF-539 23 µM | SK-MEL-5 4.07 µM | SF-295 23 µM | M14 17.1 µM | SK-OV-3 16.7 µM | DU-145 46.1 µM | UO-31 27.6 µM | SK-MEL-2 31.7 µM | MDA-MB-231 32 µM | Hs-578T 13.9 µM | MCF7 16.9 µM | NCI-H23 20.1 µM | 786-0 31.7 µM | SNB-19 34.5 µM | MDA-N 23.7 µM | RXF 393 18.4 µM | U-251 19.8 µM | K562 10.3 µM | SF-268 52.1 µM | A498 26.9 µM | CCRF-CEM 22.4 µM | MDA-MB-435 21.4 µM | PC-3 22.3 µM | NCI-H522 15.3 µM | COLO 205 12.8 µM | RPMI-8226 14.7 µM | UACC-62 > 10 µM | SN12C 32.1 µM | Malme-3M 18.3 µM | KM12 16.1 µM | SW-620 20.6 µM | LOX IMVI 25.1 µM | SK-MEL-28 23.8 µM
16.1 µM: HCT-15

O=c1[nH]c2cccc([N+](=O)[O-])c2c(=O)n1-c1ccc(Cl)cc1
inactive: MOLT-4 19 µM | UACC-257 11.5 µM | NCI-H460 4.4 µM | OVCAR-5 16.3 µM | SR 15 µM | A549 12.4 µM | IGROV-1 16.7 µM | HCT-116 17.9 µM | CAKI-1 2.64 µM | BT-549 10.7 µM | HCC 2998 14 µM | T47D 11 µM | HL-60 11.7 µM | ACHN 8.51 µM | NCI-H226 13.6 µM | OVCAR-8 11.8 µM | TK-10 14.9 µM | HOP-62 18.6 µM | HT-29 7.03 µM | EKVX 10.8 µM | NCI/ADR-RES 10.4 µM | SF-539 12.3 µM | SK-MEL-5 9.71 µM | SF-295 1.89 µM | M14 10.7 µM | SK-OV-3 14.3 µM | DU-145 15.1 µM | SK-MEL-2 9.86 µM | MDA-MB-231 15.8 µM | Hs-578T 17 µM | MCF7 9.91 µM | NCI-H23 20.3 µM | 786-0 19.8 µM | SNB-19 20 µM | MDA-N 11.3 µM | RXF 393 17.1 µM | U-251 16.4 µM | K562 1.48 µM | SF-268 12.2 µM | A498 13.9 µM | CCRF-CEM 17.4 µM | OVCAR-3 10.8 µM | MDA-MB-435 6.64 µM | PC-3 16.6 µM | COLO 205 4.24 µM | RPMI-8226 13.6 µM | UACC-62 5.3 µM | SN12C 14 µM | OVCAR-4 5.07 µM | HOP-92 18.5 µM | Malme-3M 12.8 µM | KM12 15.2 µM | SW-620 10.4 µM | LOX IMVI 16.1 µM | SK-MEL-28 13.4 µM
12.1 µM: HCT-15

CCn1c(SCC(=O)NNC(=S)NC)nc2ccccc2c1=O
> 100 µM: HCT-15
inactive: MOLT-4 > 100 µM | UACC-257 > 100 µM | NCI-H460 18.6 µM | OVCAR-5 > 100 µM | SR > 100 µM | A549 88.9 µM | IGROV-1 > 100 µM | HCT-116 > 100 µM | CAKI-1 24.1 µM | BT-549 68.1 µM | HCC 2998 > 100 µM | T47D > 100 µM | HL-60 > 100 µM | ACHN > 100 µM | SNB-75 > 100 µM | NCI-H226 > 100 µM | OVCAR-8 > 100 µM | TK-10 49 µM | HOP-62 > 100 µM | EKVX > 100 µM | NCI/ADR-RES > 100 µM | SF-539 > 100 µM | SK-MEL-5 > 100 µM | SF-295 > 100 µM | M14 > 100 µM | SK-OV-3 > 100 µM | DU-145 > 100 µM | UO-31 62.2 µM | SK-MEL-2 > 100 µM | MDA-MB-231 > 100 µM | Hs-578T > 100 µM | MCF7 > 100 µM | NCI-H23 > 100 µM | 786-0 > 100 µM | SNB-19 > 100 µM | MDA-N > 100 µM | RXF 393 34 µM | U-251 > 100 µM | K562 > 100 µM | SF-268 > 100 µM | A498 69 µM | CCRF-CEM > 100 µM | OVCAR-3 > 100 µM | MDA-MB-435 > 100 µM | PC-3 96.8 µM | NCI-H522 > 100 µM | COLO 205 > 100 µM | RPMI-8226 53 µM | UACC-62 > 100 µM | SN12C > 100 µM | OVCAR-4 76.4 µM | Malme-3M > 100 µM | KM12 > 100 µM | SW-620 > 100 µM | LOX IMVI > 100 µM | SK-MEL-28 > 100 µM

Source: ChEMBL document CHEMBL1201862, “PubChem BioAssay data set” (2004)
